According to US7915238B2, “Immunomodulatory compounds and methods of use thereof” (Eisai R & D Management Co., Ltd., priority 1999, dated 2011):

The compounds below were run on Human Whole Blood (assay: Cytokine release in human whole blood (ELISA)). Conditions: FIG. 1.
Format: cell-based
Description: The most readily available human system to test compound activity on monocytes/macrophages is in whole blood. Various concentrations of compounds of the invention were added as 10× stocks in 50 μl of Ca^++, Mg^++-free Hank's balanced salt solution (HBSS) followed by 50 μl of HBSS into 400 μl of heparinized whole blood obtained from normal volunteers (18-51 years old; 110-230 lb.) into the wells of plastic assay plates, for a total volume of 500 μl/well (final concentration of whole blood was 80%). After a 3-hour incubation with gentle shaking at 37° C. in a 5% CO2 atmosphere, the assay plates were centrifuged at 1000×g for 10 min. at 4° C. and plasma was drawn off and frozen at −80° C. Plasma samples were analyzed for TNF-alpha, IL-10, and IL-12 by ELISA (Genzyme Corp., Cambridge, Mass.). Each assay point was tested in triplicate.
This stimulatory activity can be compared to that of 10 ng/ml endotoxin (or LPS) present in similar incubations in the same assay.

Structure (SMILES)	TNF-alpha release from blood-borne cells
CCCCCCCCCCCCCC(=O)NC(COCC[C@@H](CCCCCCC)OC(=O)CCCCCCCCCCC)COP(=O)([O-])OCCNC(=O)NCCOP(=O)([O-])OCC(COCC[C@@H](CCCCCCC)OC(=O)CCCCCCCCCCC)NC(=O)CCCCCCCCCCCCC.[Na+].[Na+] (some centres unmarked) [ER 119327]	stimulate blood-borne cells to release TNF-alpha
CCCCCC/C=C\CCCC(=O)O[C@H](CCCCCCC)CCOCC(COP(=O)([O-])OCCNC(=O)NCCOP(=O)([O-])OCC(COCC[C@@H](CCCCCCC)OC(=O)CCC/C=C\CCCCCC)NC(=O)CCCCCCCCCCCCC)NC(=O)CCCCCCCCCCCCC.[Na+].[Na+] (some centres unmarked) [ER 119328]	stimulate blood-borne cells to release TNF-alpha

Same assay, conditions: TNF-alpha release; compounds tested at 10 μM; compared to 10 ng/ml LPS; 3-hour incubation

Structure (SMILES)	TNF-alpha release in whole blood at 10 μM compound (% of 10 ng/ml LPS response)
CCCCCC/C=C\CCCC(=O)O[C@H](CCCCCCC)CCOCC(COP(=O)([O-])OCCNC(=O)C(Cc1ccc(OCCNC(=O)OC(C)(C)C)cc1)C(=O)NCCOP(=O)([O-])OCC(COCC[C@@H](CCCCCCC)OC(=O)CCC/C=C\CCCCCC)NC(=O)CC(=O)CCCCCCCCCCC)NC(=O)CC(=O)CCCCCCCCCCC.[Na+].[Na+] (some centres unmarked) [compound 019772]	69 % of LPS
CCCCCCCCCCCC(=O)CC(=O)NC(COCC[C@H](O)CCCCCCC)COP(=O)([O-])OCCNC(=O)NCCOP(=O)([O-])OCC(COCC[C@H](O)CCCCCCC)NC(=O)CC(=O)CCCCCCCCCCC.[Na+].[Na+] (some centres unmarked) [compound 112043]	0 % of LPS
CCCCCCCCCCCCCCCC(=O)OCC(COP(=O)(O)OCC(O)COP(=O)(O)OCC(COC(=O)CCCCCCCCCCCCCCC)OC(=O)CCCCCCCCCCCCCCC)OC(=O)CCCCCCCCCCCCCCC (centres unmarked) [compound 112071]	0 % of LPS
CCCCCCC=CCC=CCCCCCCC(=O)OCC(COP(=O)(O)OCC(O)COP(=O)(O)OCC(COC(=O)CCCCCCC=CCC=CCCCCCC)OC(=O)CCCCCCC=CCC=CCCCCCC)OC(=O)CCCCCCC=CCC=CCCCCCC (centres unmarked) [compound 112072]	0 % of LPS
CCCCCC/C=C\CCCC(=O)O[C@H](CCCCCCC)CCOCC(COP(=O)([O-])OCCNC(=O)NCCOP(=O)([O-])OCC(COCC[C@@H](CCCCCCC)OC(=O)CCC/C=C\CCCCCC)NC(=O)C[C@@H](CCCCCCC)OC(=O)CCC/C=C\CCCCCC)NC(=O)C[C@@H](CCCCCCC)OC(=O)CCC/C=C\CCCCCC.[Na+].[Na+] (some centres unmarked) [compound 112093]	0 % of LPS
CCCCCC/C=C\CCCC(=O)O[C@H](CCCCCCC)CC(=O)NC(COCC[C@H](O)CCCCCCC)COP(=O)([O-])OCCNC(=O)c1ccccc1C(=O)NCCOP(=O)([O-])OCC(COCC[C@H](O)CCCCCCC)NC(=O)C[C@@H](CCCCCCC)OC(=O)CCC/C=C\CCCCCC.[Na+].[Na+] (some centres unmarked) [compound 112859]	0 % of LPS
CCCCCC/C=C\CCCC(=O)O[C@H](CCCCCCC)CC(=O)NC(COCC[C@H](O)CCCCCCC)COP(=O)([O-])OCCNC(=O)c1cccc(C(=O)NCCOP(=O)([O-])OCC(COCC[C@H](O)CCCCCCC)NC(=O)C[C@@H](CCCCCCC)OC(=O)CCC/C=C\CCCCCC)c1.[Na+].[Na+] (some centres unmarked) [compound 112860]	0 % of LPS
CCCCCC/C=C\CCCC(=O)O[C@H](CCCCCCC)CC(=O)NC(COCC[C@H](O)CCCCCCC)COP(=O)([O-])OCCNC(=O)c1ccc(C(=O)NCCOP(=O)([O-])OCC(COCC[C@H](O)CCCCCCC)NC(=O)C[C@@H](CCCCCCC)OC(=O)CCC/C=C\CCCCCC)cc1.[Na+].[Na+] (some centres unmarked) [compound 112861]	0 % of LPS
CCCCCC/C=C\CCCC(=O)O[C@H](CCCCCCC)CC(=O)NC(COCC[C@H](O)CCCCCCC)COP(=O)([O-])OCCNC(=O)C1OC(C)(C)OC1C(=O)NCCOP(=O)([O-])OCC(COCC[C@H](O)CCCCCCC)NC(=O)C[C@@H](CCCCCCC)OC(=O)CCC/C=C\CCCCCC.[Na+].[Na+] (some centres unmarked) [compound 113634]	0 % of LPS
CCCCCC/C=C\CCCC(=O)O[C@H](CCCCCCC)CC(=O)NC(COCC[C@H](O)CCCCCCC)COP(=O)([O-])OCCNC(=O)c1cc(O)cc(C(=O)NCCOP(=O)([O-])OCC(COCC[C@H](O)CCCCCCC)NC(=O)C[C@@H](CCCCCCC)OC(=O)CCC/C=C\CCCCCC)c1.[Na+].[Na+] (some centres unmarked) [compound 113635]	0 % of LPS
CCCCCC/C=C\CCCC(=O)O[C@H](CCCCCCC)CCOCC(COP(=O)([O-])OCCNC(=O)C(Cc1ccc(O)cc1)C(=O)NCCOP(=O)([O-])OCC(COCC[C@@H](CCCCCCC)OC(=O)CCC/C=C\CCCCCC)NC(=O)CC(=O)CCCCCCCCCCC)NC(=O)CC(=O)CCCCCCCCCCC.[Na+].[Na+] (some centres unmarked) [compound 118023]	63 % of LPS
CCCCCC/C=C\CCCC(=O)O[C@H](CCCCCCC)CCOCC(COP(=O)([O-])OCCNC(=O)CC(=O)NCCOP(=O)([O-])OCC(COCC[C@@H](CCCCCCC)OC(=O)CCC/C=C\CCCCCC)NC(=O)CCCCCCCCCCCCC)NC(=O)CCCCCCCCCCCCC.[Na+].[Na+] (some centres unmarked) [compound 118989]	159 % of LPS
CCCCCC/C=C\CCCC(=O)O[C@H](CCCCCCC)CCOCC(COP(=O)([O-])OCCNC(=O)CC(=O)NCCOP(=O)([O-])OCC(COCC[C@@H](CCCCCCC)OC(=O)CCC/C=C\CCCCCC)NC(=O)CCCCCCCCCCC)NC(=O)CCCCCCCCCCC.[Na+].[Na+] (some centres unmarked) [compound 118999]	105 % of LPS
CCCCCC/C=C\CCCC(=O)O[C@H](CCCCCCC)CCOCC(COP(=O)([O-])OCCNC(=O)CC(=O)NCCOP(=O)([O-])OCC(COCC[C@@H](CCCCCCC)OC(=O)CCC/C=C\CCCCCC)NC(=O)CCCCCCCCCCCCCCC)NC(=O)CCCCCCCCCCCCCCC.[Na+].[Na+] (some centres unmarked) [compound 119000]	60 % of LPS
CCCCCC/C=C\CCCC(=O)O[C@H](CCCCCCC)CCOCC(COP(=O)([O-])OCCNC(=O)CC(=O)NCCOP(=O)([O-])OCC(COCC[C@@H](CCCCCCC)OC(=O)CCC/C=C\CCCCCC)NC(=O)C[C@H](O)CCCCCCCCCCC)NC(=O)C[C@H](O)CCCCCCCCCCC.[Na+].[Na+] (some centres unmarked) [compound 119001]	113 % of LPS
CCCCCCCCCCCCCC(=O)NC(COCC[C@@H](CCCCCCC)OC(=O)CCCCCCCCCCC)COP(=O)([O-])OCCNC(=O)NCCOP(=O)([O-])OCC(COCC[C@@H](CCCCCCC)OC(=O)CCCCCCCCCCC)NC(=O)CCCCCCCCCCCCC.[Na+].[Na+] (some centres unmarked) [compound 119327]	165 ± 33 (n = 3) % of LPS
CCCCCC/C=C\CCCC(=O)O[C@H](CCCCCCC)CCOCC(COP(=O)([O-])OCCNC(=O)C(Cc1ccc(OCCNC(=O)OC(C)(C)C)cc1)C(=O)NCCOP(=O)([O-])OCC(COCC[C@@H](CCCCCCC)OC(=O)CCC/C=C\CCCCCC)NC(=O)CCCCCCCCCCCCC)NC(=O)CCCCCCCCCCCCC.[Na+].[Na+] (some centres unmarked) [compound 119329]	2 ± 2 (n = 2) % of LPS
CCCCCC/C=C\CCCC(=O)O[C@H](CCCCCCC)CCOCC(COP(=O)([O-])OCCNC(=O)C(CCCCNC(=O)OC(C)(C)C)C(=O)NCCOP(=O)([O-])OCC(COCC[C@@H](CCCCCCC)OC(=O)CCC/C=C\CCCCCC)NC(=O)CCCCCCCCCCCCC)NC(=O)CCCCCCCCCCCCC.[Na+].[Na+] (some centres unmarked) [compound 119521]	103 % of LPS
CCCCCC/C=C\CCCC(=O)O[C@H](CCCCCCC)CCOCC(COP(=O)([O-])OCCNC(=O)C(Cc1ccc(OCCN)cc1)C(=O)NCCOP(=O)([O-])OCC(COCC[C@@H](CCCCCCC)OC(=O)CCC/C=C\CCCCCC)NC(=O)CCCCCCCCCCCCC)NC(=O)CCCCCCCCCCCCC.[Na+].[Na+] (some centres unmarked) [compound 119522]	129 % of LPS
CCCCCC/C=C\CCCC(=O)O[C@H](CCCCCCC)CCOCC(COP(=O)([O-])OCCNC(=O)C(CCCCN)C(=O)NCCOP(=O)([O-])OCC(COCC[C@@H](CCCCCCC)OC(=O)CCC/C=C\CCCCCC)NC(=O)CCCCCCCCCCCCC)NC(=O)CCCCCCCCCCCCC.[Na+].[Na+] (some centres unmarked) [compound 119523]	176 % of LPS
CCCCCC/C=C\CCCC(=O)O[C@H](CCCCCCC)CCOCC(COP(=O)(O)OCCNC(=O)C(Cc1ccc(OCCNC(=O)CCCCC(=O)O)cc1)C(=O)NCCOP(=O)(O)OCC(COCC[C@@H](CCCCCCC)OC(=O)CCC/C=C\CCCCCC)NC(=O)CCCCCCCCCCCCC)NC(=O)CCCCCCCCCCCCC (some centres unmarked) [compound 803045]	65 % of LPS
CCCCCCCCCCCCCC(=O)NC(COCC[C@@H](CCCCCCC)OC(=O)CCCCCCCCCCC)COP(=O)([O-])OCCNC(=O)CC(=O)NCCOP(=O)([O-])OCC(COCC[C@@H](CCCCCCC)OC(=O)CCCCCCCCCCC)NC(=O)CCCCCCCCCCCCC.[Na+].[Na+] (some centres unmarked) [compound 803056]	151 ± 42 % of LPS

Same assay, conditions: whole blood; vs. % of LPS at 10 ng/ml; read-out: WB ED50 vs LPS@ 10 ng/ml

EC50 [nM]	Structure (SMILES)
> 10000	CCCCCCCCCCCCCC(=O)NC(COCCC(CCCCCCC)OCCCCCCCCCCCC)COP(=O)(O)OCCCCCCCCOP(=O)(O)OCC(COCCC(CCCCCCC)OCCCCCCCCCCCC)NC(=O)CCCCCCCCCCCCC (mixture of isomers) [compound 804596]
100	CCCCCC/C=C\CCCC(=O)O[C@H](CCCCCCC)CCOCC(COP(=O)([O-])OCCNC(=O)CC(=O)NCCOP(=O)([O-])OCC(COCC[C@@H](CCCCCCC)OC(=O)CCC/C=C\CCCCCC)NC(=O)CCCCCCCCCCCCC)NC(=O)CCCCCCCCCCCCC.[Na+].[Na+] (some centres unmarked) [compound 118989]
1230	CCCCCC/C=C\CCCC(=O)O[C@H](CCCCCCC)CCOCC(COP(=O)([O-])OCCNC(=O)CC(=O)NCCOP(=O)([O-])OCC(COCC[C@@H](CCCCCCC)OC(=O)CCC/C=C\CCCCCC)NC(=O)C[C@H](O)CCCCCCCCCCC)NC(=O)C[C@H](O)CCCCCCCCCCC.[Na+].[Na+] (some centres unmarked) [compound 119001]

Structure (SMILES)	EC50 [nM]
CCCCCCCCCCCCCC(=O)N[C@H](COCC[C@@H](CCCCCCC)OC(=O)CCCCCCCCCCC)COP(=O)(O)OCCNC(=O)NCCOP(=O)(O)OC[C@@H](COCC[C@@H](CCCCCCC)OC(=O)CCCCCCCCCCC)NC(=O)CCCCCCCCCCCCC [ER 804678]	18
CCCCCCCCCCCCCC(=O)NC(COCC[C@@H](CCCCCCC)OC(=O)CCCCCCCCCCC)COP(=O)([O-])OCCNC(=O)NCCOP(=O)([O-])OCC(COCC[C@@H](CCCCCCC)OC(=O)CCCCCCCCCCC)NC(=O)CCCCCCCCCCCCC.[Na+].[Na+] (some centres unmarked) [compound 119327]	15
